Measurements published in PubChem BioAssay (NCI).
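The compound was tested at five concentrations on cells cultured in 96-well plates, with a 48-hour exposure period. At the GI50, growth is halved. TGI: total growth inhibition.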

Tests used:
Test in all cases: NCI-60 cell line screen, 48 h
[1] = system: T-47D breast
[2] = system: UO-31 renal
[3] = system: SK-MEL-2 melanoma
[4] = system: NCI-H522 lung
[5] = system: HL-60(TB) leukemia
[6] = system: IGROV1 ovarian
[7] = system: SK-OV-3 ovarian
[8] = system: COLO 205 colon
[9] = system: MCF7 breast
[10] = system: HOP-92 NSCLC

C=CCN=C(N/N=C/c1ccc([N+](=O)[O-])o1)NS(=O)(=O)c1cc(C(=O)Nc2ccc(Cl)cc2)c(Cl)cc1SC
GI50 [1]: 5.96 µM | TGI [1]: > 51.5 µM | GI50 [2]: > 49.9 µM | TGI [2]: > 100 µM | TGI [3]: > 24.4 µM | GI50 [4]: > 58.8 µM | TGI [4]: > 100 µM | GI50 [5]: 1.05 µM | TGI [5]: 8.09 µM | GI50 [6]: > 69.9 µM | TGI [6]: > 100 µM | GI50 [7]: > 100 µM | TGI [7]: > 100 µM | TGI [8]: > 100 µM | GI50 [9]: 1.28 µM | TGI [9]: > 100 µM | GI50 [10]: 4.94 µM | TGI [10]: > 100 µM

CN(C)CCN1C(=O)c2c(c3c4ccccc4n4c3c3c2c2ccccc2n3C2CC(O)C(O)C4(C)O2)C1=O (stereo not given)
GI50 [1]: 2.39 µM | TGI [1]: 12.1 µM | GI50 [2]: 1.71 µM | TGI [2]: 13.9 µM | GI50 [3]: 2.97 µM | TGI [3]: 9.2 µM | GI50 [4]: 0.855 µM | TGI [4]: 3.66 µM | GI50 [5]: 2.47 µM | TGI [5]: 12.8 µM | GI50 [6]: 1.41 µM | TGI [6]: 13.1 µM | GI50 [7]: 1.8 µM | TGI [7]: 9.9 µM | GI50 [8]: 1.23 µM | TGI [8]: 7.1 µM | GI50 [9]: 0.58 µM | TGI [9]: 7.44 µM | GI50 [10]: 2.6 µM | TGI [10]: 11.9 µM

Cc1cc(NCCCN(C)C)c2ccc3c(ccc4c(NCCCN(C)C)cc(C)nc43)c2n1
GI50 [1]: 0.521 µM | TGI [1]: 2.54 µM | GI50 [2]: 0.231 µM | TGI [2]: 0.557 µM | GI50 [3]: 0.228 µM | TGI [3]: 0.55 µM | GI50 [4]: 0.202 µM | TGI [4]: 0.554 µM | GI50 [5]: 0.0375 µM | GI50 [6]: 0.152 µM | TGI [6]: 0.377 µM | GI50 [7]: 0.23 µM | TGI [7]: 0.507 µM | GI50 [8]: 0.183 µM | TGI [8]: 0.408 µM | GI50 [9]: 0.0635 µM | TGI [9]: 0.302 µM | GI50 [10]: 0.0665 µM | TGI [10]: 0.298 µM

C/C(O)=C(/C=N/C(=S)Nc1ccc(S(N)(=O)=O)cc1)C(=O)Nc1ccccc1C
TGI [1]: > 100 µM | TGI [2]: > 100 µM | TGI [3]: > 100 µM | TGI [4]: > 100 µM | TGI [5]: 42.8 µM | TGI [6]: > 100 µM | TGI [7]: > 100 µM | TGI [8]: > 100 µM | TGI [9]: > 100 µM | TGI [10]: > 100 µM

COc1ccc(CCN2CC=Cn3c2nc2ccccc2c3=O)cc1
GI50 [1]: 16 µM | TGI [1]: > 100 µM | GI50 [2]: 0.0683 µM | TGI [2]: > 100 µM | GI50 [3]: 0.0334 µM | TGI [3]: 32.9 µM | GI50 [4]: 0.0113 µM | TGI [4]: 0.0375 µM | GI50 [5]: < 0.0116 µM | TGI [5]: 0.0648 µM | GI50 [6]: 0.0509 µM | TGI [6]: > 50.3 µM | GI50 [7]: 0.0559 µM | TGI [7]: > 89.7 µM | GI50 [8]: 0.0267 µM | TGI [8]: 0.0847 µM | GI50 [9]: 0.0307 µM | TGI [9]: > 43 µM | GI50 [10]: 0.127 µM | TGI [10]: 29.5 µM

COc1cc(C(=O)c2c(-c3ccccc3)oc3c(OC)cccc23)cc(OC)c1OC
GI50 [1]: 31.8 µM | TGI [1]: > 100 µM | GI50 [2]: 0.119 µM | TGI [2]: > 100 µM | GI50 [3]: 2.4 µM | TGI [3]: > 84.5 µM | GI50 [4]: 0.0348 µM | TGI [4]: > 34.4 µM | GI50 [5]: 0.0448 µM | TGI [5]: 0.2 µM | GI50 [6]: 0.0677 µM | TGI [6]: > 100 µM | GI50 [7]: 1.57 µM | TGI [7]: > 100 µM | GI50 [8]: 0.123 µM | TGI [8]: 0.485 µM | GI50 [9]: 0.153 µM | TGI [9]: > 100 µM | GI50 [10]: 0.108 µM | TGI [10]: 21.5 µM

NCCCC[C@@H]1NC(=O)[C@H]2CCCN2C(=O)[C@H](Cc2ccccc2)CNC(=O)[C@H](Cc2ccccc2)NC1=O
GI50 [1]: > 37.5 µM | TGI [1]: > 37.5 µM | GI50 [2]: > 37.5 µM | TGI [2]: > 37.5 µM | GI50 [3]: > 37.5 µM | TGI [3]: > 37.5 µM | GI50 [4]: > 37.5 µM | TGI [4]: > 37.5 µM | GI50 [5]: > 11.3 µM | TGI [5]: > 37.5 µM | GI50 [6]: > 37.5 µM | TGI [6]: > 37.5 µM | GI50 [7]: > 37.5 µM | TGI [7]: > 37.5 µM | GI50 [8]: > 37.5 µM | TGI [8]: > 37.5 µM | GI50 [9]: > 37.5 µM | TGI [9]: > 37.5 µM | GI50 [10]: > 37.5 µM | TGI [10]: > 37.5 µM

O=C1/C(=C/c2ccccc2)CN(C(=O)CCN2CCOCC2)C/C1=C\c1ccccc1
TGI [1]: 7.35 µM | TGI [2]: 19.2 µM | TGI [3]: 6.96 µM | TGI [4]: 4.46 µM | TGI [5]: 6.51 µM | TGI [6]: 18.8 µM | TGI [7]: 24.2 µM | TGI [8]: 7.67 µM | TGI [9]: 6.29 µM | TGI [10]: 22.2 µM

COc1cc2c(cc1OC)[C@H](C)N1CCc3cc(OC)c(OC)cc3[C@@H]1C2
TGI [1]: > 100 µM | TGI [2]: > 100 µM | TGI [3]: > 100 µM | TGI [4]: > 100 µM | TGI [5]: > 100 µM | TGI [6]: > 100 µM | TGI [7]: > 100 µM | TGI [8]: > 100 µM | TGI [9]: > 100 µM | TGI [10]: > 100 µM

C#CC#CC#CC#CC#CC#CC#CC#CCC1OCC(COC(=O)O[C@@H](C(=O)O[C@H]2C[C@@]3(O)[C@@H](OC(=O)c4ccccc4)[C@@H]4[C@]5(OC(C)=O)CO[C@@H]5C[C@H](O)[C@@]4(C)C(=O)[C@H](OC(C)=O)C(=C2C)C3(C)C)[C@@H](NC(=O)c2ccccc2)c2ccccc2)O1 (stereo not given in full)
GI50 [1]: 0.205 µM | TGI [1]: > 33.3 µM | GI50 [2]: > 33.3 µM | TGI [2]: > 33.3 µM | GI50 [3]: 0.603 µM | TGI [3]: > 33.3 µM | GI50 [4]: 0.166 µM | TGI [4]: > 33.3 µM | GI50 [5]: 0.099 µM | GI50 [6]: 0.235 µM | TGI [6]: > 33.3 µM | GI50 [7]: 0.51 µM | TGI [7]: > 33.3 µM | GI50 [8]: 0.103 µM | TGI [8]: > 26.8 µM | GI50 [9]: 0.0461 µM | TGI [9]: > 33.3 µM | TGI [10]: > 33.3 µM
